For four compounds, T/C results are on record in PubChem BioAssay AID342 (DTP/NCI, 2004).

This assay deals with Swiss mice, Sarcoma 180 sc, mean tumor weight T/C. The assay can be described thus: NCI In Vivo Anticancer Drug Screen. Data for tumor model Sarcoma 180 (subcutaneous) in Swiss mice. Particulars: endpoint: mean tumor weight, higher = larger tumour. An outline of the steps:
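Readout is the ratio of treated-group measurement to vehicle-control measurement (T/C), based on survival or tumor size in mice carrying transplanted tumors.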

Several values for one entry are separate records, joined by “and”; a condition that tells them apart may be missing. Equal values may be shown once.

What is called T/C is the ratio of treated to control. `CCC(c1ccc(O)cc1)C(CC)c1ccc(OC)cc1` (stereo not drawn): the T/C (dose: 2.0 mg/kg/injection, schedule: Q#A X014 (sc), vehicle: steriod suspending solution) was 45 % of control and 53 % of control; the T/C (dose: 2.35 mg/kg/injection, schedule: Q#A X014 (ip), vehicle: methylcellulose (MC)) was 25 % of control; the T/C (dose: 3.5 mg/kg/injection, schedule: Q#A X014 (ip), vehicle: methylcellulose (MC)) is 32 % of control; the T/C (dose: 5.0 mg/kg/injection, schedule: Q#A X014 (ip), vehicle: methylcellulose (MC)) is 40 % of control; the T/C (dose: 5.5 mg/kg/injection, schedule: Q#A X014 (sc), vehicle: steriod suspending solution) is 39 % of control and 52 % of control; the T/C (dose: 7.5 mg/kg/injection, schedule: Q#A X014 (ip), vehicle: methylcellulose (MC)) is 41 % of control. Moreover, the T/C (dose: 8.5 mg/kg/injection, schedule: Q#A X014 (ip), vehicle: distilled water + alcohol) is 15 % of control; the T/C (dose: 12.5 mg/kg/injection, schedule: Q#A X014 (ip), vehicle: distilled water + alcohol) was 27 % of control; the T/C (dose: 16.5 mg/kg/injection, schedule: Q#A X014 (sc), vehicle: steriod suspending solution) is 35 % of control and 48 % of control; the T/C (dose: 18.5 mg/kg/injection, schedule: Q#A X014 (ip), vehicle: distilled water + alcohol) is 12 % of control; the T/C (dose: 27.5 mg/kg/injection, schedule: Q#A X014 (ip), vehicle: distilled water + alcohol) is 19 % of control; the T/C (dose: 27.5 mg/kg/injection, schedule: Q#A X014 (ip), vehicle: olive oil, sesame oil, peanut oil) was 49 % of control. The T/C was 24 % of control and 46 % of control (dose: 27.75 mg/kg/injection, schedule: Q#A X014 (ip), vehicle: methylcellulose (MC)); 48 % of control (dose: 41.5 mg/kg/injection, schedule: Q#A X014 (ip), vehicle: olive oil, sesame oil, peanut oil); 20 % of control and 24 % of control (dose: 41.65 mg/kg/injection, schedule: Q#A X014 (ip), vehicle: methylcellulose (MC)); 33 % of control and 36 % of control (dose: 50.0 mg/kg/injection, schedule: Q#A X014 (sc), vehicle: steriod suspending solution); 20 % of control and 32 % of control (dose: 62.5 mg/kg/injection, schedule: Q#A X014 (ip), vehicle: methylcellulose (MC)); 69 % of control (dose: 62.5 mg/kg/injection, schedule: Q#A X014 (ip), vehicle: olive oil, sesame oil, peanut oil). Further, the T/C is, setting by setting: (dose: 94.0 mg/kg/injection, schedule: Q#A X014 (ip), vehicle: methylcellulose (MC)) 28 % of control and 36 % of control; (dose: 94.0 mg/kg/injection, schedule: Q#A X014 (ip), vehicle: olive oil, sesame oil, peanut oil) 42 % of control; (dose: 150.0 mg/kg/injection, schedule: Q#A X014 (sc), vehicle: steriod suspending solution) 29 % of control and 44 % of control.

As for `CCN(CC)P(=O)(N1CC1)N1CC1`, the T/C is, setting by setting: (dose: 1.0 mg/kg/injection, schedule: Q#A X014 (ip), vehicle: methylcellulose (MC)) 64 % of control; (dose: 1.0 mg/kg/injection, schedule: Q#A X014 (ip), vehicle: saline) 90 % of control and 92 % of control; (dose: 1.5 mg/kg/injection, schedule: Q#A X014 (ip), vehicle: methylcellulose (MC)) 60 % of control; (dose: 2.0 mg/kg/injection, schedule: Q#A X014 (ip), vehicle: methylcellulose (MC)) 82 % of control; (dose: 3.0 mg/kg/injection, schedule: Q#A X014 (ip), vehicle: saline) 19 % of control and 38 % of control; (dose: 4.0 mg/kg/injection, schedule: Q01DX007 (ip), vehicle: saline) 48 % of control.

In the case of `CCOC(N)=O`, the T/C reads like this: (dose: 62.5 mg/kg/injection, schedule: Q#A X014 (ip), vehicle: carboxymethylcellulose (CMC)) 103 % of control; (dose: 85.38 mg/kg/injection, schedule: Q01DX007 (ip), vehicle: carboxymethylcellulose (CMC)) 56 % of control; (dose: 112.5 mg/kg/injection, schedule: Q01DX007 (ip), vehicle: carboxymethylcellulose (CMC)) 53 % of control; (dose: 125.0 mg/kg/injection, schedule: Q#A X014 (ip), vehicle: carboxymethylcellulose (CMC)) 85 % of control; (dose: 170.75 mg/kg/injection, schedule: Q01DX007 (ip), vehicle: carboxymethylcellulose (CMC)) 64 % of control; (dose: 225.0 mg/kg/injection, schedule: Q01DX007 (ip), vehicle: carboxymethylcellulose (CMC)) 42 % of control. Besides, the T/C is 113 % of control (dose: 225.0 mg/kg/injection, schedule: Q#A X014 (ip), vehicle: carboxymethylcellulose (CMC)); 77 % of control (dose: 250.0 mg/kg/injection, schedule: Q#A X014 (ip), vehicle: carboxymethylcellulose (CMC)); 55 % of control (dose: 273.2 mg/kg/injection, schedule: Q01DX007 (ip), vehicle: carboxymethylcellulose (CMC)); 73 % of control (dose: 300.0 mg/kg/injection, schedule: Q#A X014 (ip), vehicle: carboxymethylcellulose (CMC)); 67 % of control (dose: 316.0 mg/kg/injection, schedule: Q01DX007 (ip), vehicle: carboxymethylcellulose (CMC)); 37 % of control and 46 % of control (dose: 341.5 mg/kg/injection, schedule: Q01DX007 (ip), vehicle: carboxymethylcellulose (CMC)). In addition, the T/C by setting is: (dose: 395.0 mg/kg/injection, schedule: Q01DX007 (ip), vehicle: carboxymethylcellulose (CMC)) 54 % of control; (dose: 450.0 mg/kg/injection, schedule: Q01DX007 (ip), vehicle: carboxymethylcellulose (CMC)) 53 % of control; (dose: 455.33 mg/kg/injection, schedule: Q01DX007 (ip), vehicle: carboxymethylcellulose (CMC)) 62 % of control; (dose: 500.0 mg/kg/injection, schedule: Q#A X014 (ip), vehicle: carboxymethylcellulose (CMC)) 24 % of control; (dose: 526.6 mg/kg/injection, schedule: Q01DX007 (ip), vehicle: carboxymethylcellulose (CMC)) 40 % of control; (dose: 683.0 mg/kg/injection, schedule: Q01DX007 (ip), vehicle: carboxymethylcellulose (CMC)) 21 % of control and 44 % of control. Besides, the T/C (dose: 900.0 mg/kg/injection, schedule: Q01DX007 (ip), vehicle: carboxymethylcellulose (CMC)) was 23 % of control.

As to `CNNCc1ccc(C(=O)NC(C)C)cc1`, the T/C runs as follows: (dose: 100.0 mg/kg/injection, schedule: Q01DX007 (ip), vehicle: saline) 26 % of control; (dose: 125.0 mg/kg/injection, schedule: Q01DX007 (ip), vehicle: carboxymethylcellulose (CMC)) 36 % of control; (dose: 148.0 mg/kg/injection, schedule: Q01DX007 (ip), vehicle: saline) 22 % of control; (dose: 222.0 mg/kg/injection, schedule: Q01DX007 (ip), vehicle: saline) 16 % of control; (dose: 250.0 mg/kg/injection, schedule: Q01DX007 (ip), vehicle: carboxymethylcellulose (CMC)) 15 % of control; (dose: 333.0 mg/kg/injection, schedule: Q01DX007 (ip), vehicle: saline) 16 % of control. Further, under “dose: 500.0 mg/kg/injection, schedule: Q01DX007 (ip), vehicle: saline”, the T/C is 8 % of control.
